# Experimental data reported in patent publication US7368471B2, “Substituted indole acid derivatives as inhibitors of plasminogen activator inhibitor-1 (PAI-1)” (Wyeth, priority 2001, dated 2008).
# Read-outs that look alike come from different tables or passages of the source.
# Key:
# [1] = biological target: T1, recombinant human plasminogen activator inhibitor-1 (PAI-1) (Homo sapiens, UniProt P05121); test: Modification of the Primary Screen for the PAI-1 Inhibition (IC50); assay type: biochemical; details: footnote b: determined by a modification of the Primary Screen for the PAI-1 Inhibition
# T1 construct: purchased Molecular Innovations, Royal Oak, Mich
# T1 sequence (P05121 24-402): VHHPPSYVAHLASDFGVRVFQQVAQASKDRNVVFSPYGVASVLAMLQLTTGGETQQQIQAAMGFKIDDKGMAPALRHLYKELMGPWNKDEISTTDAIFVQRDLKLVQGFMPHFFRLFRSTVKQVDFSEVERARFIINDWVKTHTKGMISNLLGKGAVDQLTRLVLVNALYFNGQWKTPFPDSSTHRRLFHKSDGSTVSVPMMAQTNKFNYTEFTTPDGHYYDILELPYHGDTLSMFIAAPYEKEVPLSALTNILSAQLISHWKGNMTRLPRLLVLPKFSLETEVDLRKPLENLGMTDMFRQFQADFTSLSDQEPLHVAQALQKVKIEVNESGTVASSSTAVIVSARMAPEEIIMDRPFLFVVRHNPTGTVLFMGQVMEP
# Description: (§1) Primary Screen for the PAI-1 Inhibition
# (§2) Test compounds are dissolved in DMSO at a final concentration of 10 mM, then diluted 100× in physiologic buffer. The inhibitory assay is initiated by the addition of the test compound (1-100 μM final concentration, maximum DMSO concentration of 0.2%) in a pH 6.6 buffer containing 140 nM recombinant human plasminogen activator inhibitor-1 (PAI-1; Molecular Innovations, Royal Oak, Mich.). Following a 1 hour incubation at room temperature, 70 nM of recombinant human tissue plasminogen activator (tPA) is added, and the combination of the test compound, PAI-1 and tPA is incubated for an additional 30 minutes. Following the second incubation, Spectrozyme-tPA (American Diagnostica, Greenwich, Conn.), a chromogenic substrate for tPA, is added and absorbance read at 405 nm at 0 and 60 minutes. Relative PAI-1 inhibition is equal to the residual tPA activity in the presence of the test compound and PAI-1. Control treatments include the complete inhibition of tPA by PAI-1 at the molar ratio employed (2:1), and the absence of any effect of the test compound on tPA alone.
# human PAI-1 = human PAI-1 (Homo sapiens, UniProt P05121); test: Antibody Assay for Determining IC50 of Inhibition of PAI-1 (active PAI-1 bound to tPA-coated plate, 33B8 antibody); assay type: binding
# Sequence of human PAI-1 (P05121 24-402): as above
# Description: Assay for Determining IC50 of Inhibition of PAI-1
# This assay is based upon the non-SDS dissociable interaction between tPA and active PAI-1. Assay plates are initially coated with human tPA (10 μg/ml). Test compounds are dissolved in DMSO at 10 mM, then diluted with physiologic buffer (pH 7.5) to a final concentration of 1-50 μM. Test compounds are incubated with human PAI-1 (50 ng/ml) for 15 minutes at room temperature. The tPA-coated plate is washed with a solution of 0.05% Tween 20 and 0.1% BSA, then the plate is blocked with a solution of 3% BSA. […] The plate is again washed, and a solution of goat anti-mouse IgG-alkaline phosphatase conjugate is added at a 1:50,000 dilution in goat serum. The plate is incubated 30 minutes at room temperature, washed, and a solution of alkaline phosphatase substrate is added. The plate is incubated 45 minutes at room temperature, and color development is determined at OD405nm. […] Results are analyzed using a logarithmic best-fit equation. The assay sensitivity is 5 ng/ml of human PAI-1 as determined from a standard curve ranging from 0-100 ng/ml.
# [2] = biological target: T1, recombinant human plasminogen activator inhibitor-1 (PAI-1); test: Primary Screen for the PAI-1 Inhibition (residual tPA activity, Spectrozyme-tPA chromogenic substrate); assay type: biochemical; details: 25 μM test compound
# Description: as §1, §2
# [3] = footnote a: determined by the Antibody Assay, read-out: IC50
Compound,IC50 [1] [µM],melting point,IC50 (human PAI-1) [µM],IC50 (human PAI-1; [3]) [µM],inhibition at 25 µM [2] [%]
"Cn1cc(C(=O)C(=O)O)c2ccc(-c3ccc(C(F)(F)F)cc3)cc21 [Example 2, {1-Methyl-6-[4-(trifluoromethyl)phenyl]-1H-indol-3-yl}(oxo)acetic acid]",32,256 to 257 °C (dec.),,,
"O=C(O)C(=O)c1cn(Cc2ccccc2)c2cc(-c3ccc(OC(F)(F)F)cc3)ccc12 [Example 5, {1-Benzyl-6-[4-(trifluoromethoxy)phenyl]-1H-indol-3-yl}(oxo)acetic acid]",,,17.3,,
"CC(C)(C)c1ccc(Cn2cc(C(=O)C(=O)O)c3ccc(-c4ccc(OC(F)(F)F)cc4)cc32)cc1 [Example 8, {1-[4-(tert-Butyl)benzyl]-6-[4-(trifluoromethoxy)phenyl]-1H-indol-3-yl}(oxo)acetic acid]",11.2,,,,
"O=C(O)C(=O)c1cn(Cc2ccccc2)c2ccc(-c3ccc(F)c(Cl)c3)cc12 [Example 15, [1-Benzyl-5-(3-chloro-4-fluorophenyl)-1H-indol-3-yl](oxo)acetic acid]",6.5,145 to 146 °C (dec.),,,
"O=C(O)C(=O)c1cn(Cc2ccccc2)c2ccc(-c3cc(C(F)(F)F)cc(C(F)(F)F)c3)cc12 [Example 16, {1-Benzyl-5-[3,5-bis(trifluoromethyl)phenyl]-1H-indol-3-yl}(oxo)acetic acid]",,206 to 207 °C,,11.5,
"O=C(O)C(=O)c1cn(Cc2ccccc2)c2c(-c3ccc(OC(F)(F)F)cc3)cccc12 [Example 17, {1-Benzyl-7-[4-(trifluoromethoxy)phenyl]-1H-indol-3-yl}(oxo)acetic acid]",,,,10,
"O=C(O)C(=O)c1cn(Cc2ccccc2)c2c(-c3ccc(F)c(Cl)c3)cccc12 [Example 18, [1-Benzyl-7-(3-chloro-4-fluorophenyl)-1H-indol-3-yl](oxo)acetic acid]",19.4,153 to 156 °C,,,
"CC(C)(C)c1ccc(Cn2cc(C(=O)C(=O)O)c3cc(-c4ccc(OC(F)(F)F)cc4)ccc32)cc1 [Example 19, {1-(4-tert-Butylbenzyl)-5-[4-(trifluoromethoxy)phenyl]-1H-indol-3-yl}(oxo)acetic acid]",15.8,,,,
"O=C(O)C(=O)c1cn(Cc2ccccc2)c2cc(-c3cccc(Cl)c3)ccc12 [Example 21, [1-Benzyl-6-(3-chlorophenyl)-1H-indol-3-yl](oxo)acetic acid]",,186 to 188 °C,,19.9,
"O=C(O)C(=O)c1cn(Cc2ccccc2)c2ccc(-c3cccc(OC(F)(F)F)c3)cc12 [Example 22, {1-Benzyl-5-[3-(trifluoromethoxy)phenyl]-1H-indol-3-yl}(oxo)acetic acid]",,,,9.7,
"Cc1ccc(Cn2cc(C(=O)C(=O)O)c3cc(-c4ccccc4)ccc32)cc1 [Example 25, [1-(4-Methylbenzyl)-5-phenyl-1H-indol-3-yl](oxo)acetic acid]",14,195 to 196 °C,,,
"Cc1ccc(Cn2cc(C(=O)C(=O)O)c3cc(-c4ccc(OC(F)(F)F)cc4)ccc32)cc1 [Example 26, {1-(4-Methylbenzyl)-5-[4-(trifluoromethoxy)phenyl]-1H-indol-3-yl}(oxo)acetic acid]",6.8,192 to 193 °C,,,
"O=C(O)C(=O)c1cn(Cc2ccc(F)cc2)c2ccc(-c3ccc(OC(F)(F)F)cc3)cc12 [Example 27, {1-(4-Fluorobenzyl)-5-[4-(trifluoromethoxy)phenyl]-1H-indol-3-yl}(oxo)acetic acid]",5.3,158 to 159 °C,,,
"O=C(O)C(=O)c1cn(Cc2ccc(F)cc2)c2ccc(-c3ccccc3)cc12 [Example 28, [1-(4-Fluorobenzyl)-5-phenyl-1H-indol-3-yl](oxo)acetic acid]",,165 to 166 °C,,35,
"CCCCn1cc(C(=O)C(=O)O)c2cc(-c3ccc(Cl)cc3)ccc21 [Example 29, [1-Butyl-5-(4-chlorophenyl)-1H-indol-3-yl](oxo)acetic acid]",,136 to 137 °C,12.5,,
"CCCCn1cc(C(=O)C(=O)O)c2cc(-c3cccc(Cl)c3)ccc21 [Example 30, [1-Butyl-5-(3-chlorophenyl)-1H-indol-3-yl](oxo)acetic acid]",16,108 to 109 °C,,,
"CCCCn1cc(C(=O)C(=O)O)c2cc(-c3ccc(C(F)(F)F)cc3)ccc21 [Example 33, {1-Butyl-5-[4-(trifluoromethyl)phenyl]-1H-indol-3-yl}(oxo)acetic acid]",,149 °C,,10.5,
"Cc1cccc(-c2ccc3c(c2)c(C(=O)C(=O)O)cn3Cc2ccc(C(C)(C)C)cc2)c1 [Example 34, [1-(4-tert-Butylbenzyl)-5-(3-methylphenyl)-1H-indol-3-yl](oxo)acetic acid]",6.2,,,,
"COc1cccc(-c2ccc3c(c2)c(C(=O)C(=O)O)cn3Cc2ccc(C(C)(C)C)cc2)c1 [Example 35, [1-(4-tert-Butylbenzyl)-5-(3-methoxyphenyl)-1H-indol-3-yl](oxo)acetic acid]",14.6,,,,
"CC(C)(C)c1ccc(Cn2cc(C(=O)C(=O)O)c3cc(-c4ccc(C(C)(C)C)cc4)ccc32)cc1 [Example 36, [1-(4-tert-Butylbenzyl)-5-(4-tert-butylphenyl)-1H-indol-3-yl](oxo)acetic acid]",,111 to 112 °C,,10,
"CC(C)(C)c1ccc(Cn2cc(C(=O)C(=O)O)c3cc(-c4cccc(Cl)c4)ccc32)cc1 [Example 37, [1-(4-tert-Butylbenzyl)-5-(3-chlorophenyl)-1H-indol-3-yl](oxo)acetic acid]",,138 to 139 °C,,16.4,
"Cc1ccccc1-c1ccc2c(c1)c(C(=O)C(=O)O)cn2Cc1ccc(C(C)(C)C)cc1 [Example 39, [1-(4-tert-Butylbenzyl)-5-(2-methylphenyl)-1H-indol-3-yl](oxo)acetic acid]",,97 to 98 °C,,21.6,
"CCC(CC)Cn1cc(C(=O)C(=O)O)c2cc(-c3ccc(OC(F)(F)F)cc3)ccc21 [Example 40, {1-(2-Ethylbutyl)-5-[4-(trifluoromethoxy)phenyl]-1H-indol-3-yl}(oxo)acetic acid]",8.5,98 to 99 °C,,,
"Cc1ccc(Cn2c(CO)c(C(=O)C(=O)[O-])c3cc(-c4ccc(OC(F)(F)F)cc4)ccc32)cc1.[K+] [Example 42, {2-(Hydroxymethyl)-1-(4-methylbenzyl)-5-[4-(trifluoromethoxy)phenyl]-1H-indol-3-yl}(oxo)acetic acid, potassium salt]",,248 to 249.5 °C,,45.7,
"CC(=O)OCc1c(C(=O)C(=O)O)c2cc(-c3ccc(OC(F)(F)F)cc3)ccc2n1Cc1ccccc1 [Example 43, {2-[(Acetyloxy)methyl]-1-benzyl-5-[4-(trifluoromethoxy)phenyl]-1H-indol-3-yl}(oxo)acetic acid]",,85 to 86 °C,,17.2,
"O=C([O-])C(=O)c1c(CO)n(Cc2ccccc2)c2ccc(-c3ccc(OC(F)(F)F)cc3)cc12.[K+] [Example 44, {1-Benzyl-2-(hydroxymethyl)-5-[4-(trifluoromethoxy)phenyl]-1H-indol-3-yl}(oxo)acetic acid, potassium salt]",,280 to 282 °C,,26.3,
"O=C(O)C(=O)c1cn(CC2CCCCC2)c2ccc(-c3cccc(Cl)c3)cc12 [Example 48, [5-(3-chlorophenyl)-1-(cyclohexylmethyl)-1H-indol-3-yl](oxo)acetic acid]",,,,13.3,
"O=C(O)c1cn(Cc2ccccc2)c2ccc(-c3ccc(F)c(Cl)c3)cc12 [Example 62, 1-Benzyl-5-(3-chloro-4-fluoro-phenyl)-1H-indole-3-carboxylic acid]",,189 to 194 °C,11.2,,53
